Among the data in publication PMC6015499 (Journal of medicinal chemistry, 2017) are PAMPA permeability values, retold here.

This series is described as follows: PAMPA permeability. Type of series: in vitro ADME. (The PAMPA barrier holds no transporters, so it reflects passive diffusion.)
On to `Cc1ccc2ccccc2c1-c1nc(CN2CCC(C(=O)NCCCN3C[C@H](C)C[C@H](C)C3)CC2)c(C)o1` [7bbb, N-(3-(cis-3,5-Dimethylpiperidin-1-yl)propyl)-1-((5-methyl-2-(2-methylnaphthalen-1-yl)oxazol-4-yl)methyl)piperidine-4-carboxamide], for which the PAMPA permeability is 547.1 1×10^−6 cm/s.
On to `Cc1cc(-c2nc(CN3CCC(C(=O)NCCCN4CCC(C(C)C)CC4)CC3)co2)ccc1F` [18b, 1-((2-(4-Fluoro-3-methylphenyl)oxazol-4-yl)methyl)-N-(3-(4-isopropylpiperidin-1-yl)propyl)piperidine-4-carboxamide], for which the PAMPA permeability is recorded as 276.4 1×10^−6 cm/s.
Regarding `Cc1cccc(F)c1-c1nc(CN2CCC(C(=O)NCCCN3C[C@H](C)C[C@H](C)C3)CC2)c(C)o1` [7ss, N-(3-(cis-3,5-Dimethylpiperidin-1-yl)propyl)-1-((2-(2-fluoro-6-methylphenyl)-5-methyloxazol-4-yl)methyl)piperidine-4-carboxamide], the PAMPA permeability was 233.8 1×10^−6 cm/s.
Turning to `Cc1cccc(C)c1-c1nc(CN2CCC(C(=O)NCCCN3C[C@H](C)C[C@H](C)C3)CC2)c(C)o1` [7w, N-(3-(cis-3,5-Dimethylpiperidin-1-yl)propyl)-1-((2-(2,6-dimethylphenyl)-5-methyloxazol-4-yl)methyl)piperidine-4-carboxamide], the PAMPA permeability was 253.9 1×10^−6 cm/s.
The result for `CCc1ccccc1-c1nc(CN2CCC(C(=O)NCCCN3C[C@H](C)C[C@H](C)C3)CC2)c(C)o1` [7v, N-(3-(cis-3,5-Dimethylpiperidin-1-yl)propyl)-1-((2-(2-ethylphenyl)-5-methyloxazol-4-yl)methyl)piperidine-4-carboxamide] reads 106.1 1×10^−6 cm/s; that for `Cc1ccccc1-c1nc(CN2CCC(C(=O)NCCCN3CC4CCCC(C4)C3)CC2)c(C)o1` [7m, N-(3-(3-Azabicyclo[3.3.1]nonan-3-yl)propyl)-1-((5-methyl-2-(otolyl)oxazol-4-yl)methyl)piperidine-4-carboxamide], 330.9 1×10^−6 cm/s; that for `COc1cccc(Cl)c1-c1nc(CN2CCC(C(=O)NCCCN3C[C@H](C)C[C@H](C)C3)CC2)c(C)o1` [7uu, N-(3-(cis-3,5-Dimethylpiperidin-1-yl)propyl)-1-((2-(2-chloro-6-methoxyphenyl)-5-methyloxazol-4-yl)methyl)piperidine-4-carboxamide], 51.0 1×10^−6 cm/s.
The value for `COc1cccc(Br)c1-c1nc(CN2CCC(C(=O)NCCCN3C[C@H](C)C[C@H](C)C3)CC2)c(C)o1` [7tt, N-(3-(cis-3,5-Dimethylpiperidin-1-yl)propyl)-1-((2-(2-bromo-6-methoxyphenyl)-5-methyloxazol-4-yl)methyl)piperidine-4-carboxamide] was 245.3 1×10^−6 cm/s; that for `Cc1ccc(-c2nc(CN3CCC(C(=O)NCCCN4C[C@H](C)C[C@H](C)C4)CC3)c(C)o2)cc1` [7u, N-(3-(cis-3,5-Dimethylpiperidin-1-yl)propyl)-1-((5-methyl-2-(ptolyl)oxazol-4-yl)methyl)piperidine-4-carboxamide] was 274.3 1×10^−6 cm/s.
For `CCCN(CCC)CCNC(=O)C1CCN(Cc2nc(-c3ccccc3C)oc2C)CC1` [7p, N-(2-(Dipropylamino)ethyl)-1-((5-methyl-2-(o-tolyl)oxazol-4-yl)-methyl)piperidine-4-carboxamide], the PAMPA permeability is 913.1 1×10^−6 cm/s.
The value for `Cc1ccccc1-c1nc(CN2CCC(C(=O)NCCCN3CC(C)(C)CC(C)(C)C3)CC2)c(C)o1` [7d, 1-((5-Methyl-2-(o-tolyl)oxazol-4-yl)methyl)-N-(3-(cis-3,3,5,5-tetramethylpiperidin-1-yl)propyl)piperidine-4-carboxamide] was >1397 1×10^−6 cm/s; that for `Cc1ccccc1-c1nc(CN2CCC(C(=O)NCCCN3CCC(C)(C)CC3)CC2)c(C)o1` [7f, N-(3-(4,4-Dimethylpiperidin-1-yl)propyl)-1-((5-methyl-2-(o-tolyl)-oxazol-4-yl)methyl)piperidine-4-carboxamide] was 241.4 1×10^−6 cm/s; that for `Cc1oc(-c2c(C)c(C)c(C)c(C)c2C)nc1CN1CCC(C(=O)NCCCN2C[C@H](C)C[C@H](C)C2)CC1` [7cc, N-(3-(cis-3,5-Dimethylpiperidin-1-yl)propyl)-1-((2-(2,3,4,5,6-pentamethylphenyl)-5-methyloxazol-4-yl)methyl)piperidine-4-carboxamide] was 455.2 1×10^−6 cm/s.
The value for `Cc1cc(-c2nc(CN3CCC(C(=O)NCCCN4C[C@H](C)C[C@H](C)C4)CC3)co2)ccc1F` [18a, N-(3-(cis-3,5-Dimethylpiperidin-1-yl)propyl)-1-((2-(4-fluoro-3-methylphenyl)oxazol-4-yl)methyl)piperidine-4-carboxamide] was 215.4 1×10^−6 cm/s; that for `Cc1oc(-c2c(F)cccc2F)nc1CN1CCC(C(=O)NCCCN2C[C@H](C)C[C@H](C)C2)CC1` [7jj, N-(3-(cis-3,5-Dimethylpiperidin-1-yl)propyl)-1-((2-(2,6-difluorophenyl)-5-methyloxazol-4-yl)methyl)piperidine-4-carboxamide] was 82.4 1×10^−6 cm/s; that for `Cc1oc(-c2cccc(Cl)c2)nc1CN1CCC(C(=O)NCCCN2C[C@H](C)C[C@H](C)C2)CC1` [7ee, N-(3-(cis-3,5-Dimethylpiperidin-1-yl)propyl)-1-((2-(3-chlorophenyl)-5-methyloxazol-4-yl)methyl)piperidine-4-carboxamide] was 615.1 1×10^−6 cm/s.
For the molecule `Cc1ccccc1-c1nc(CN2CCC(C(=O)NCCN3C[C@H](C)C[C@H](C)C3)CC2)c(C)o1` [7n, N-(3-(cis-3,5-Dimethylpiperidin-1-yl)ethyl)-1-((5-methyl-2-(otolyl)oxazol-4-yl)methyl)piperidine-4-carboxamide], the PAMPA permeability is on record as 712.4 1×10^−6 cm/s.
As for `Cc1ccccc1-c1nc(CN2CCC(C(=O)NCCCN3[C@H](C)CCC[C@@H]3C)CC2)c(C)o1` [7i, N-(3-(cis-2,6-Dimethylpiperidin-1-yl)propyl)-1-((5-methyl-2-(otolyl)oxazol-4-yl)methyl)piperidine-4-carboxamide], the PAMPA permeability is 55.4 1×10^−6 cm/s.
Turning to `Cc1ccc(-c2nc(CN3CCC(C(=O)NCCCN4C[C@H](C)C[C@H](C)C4)CC3)c(C)o2)c(C)c1` [7y, N-(3-(cis-3,5-Dimethylpiperidin-1-yl)propyl)-1-((2-(2,4-dimethylphenyl)-5-methyloxazol-4-yl)methyl)piperidine-4-carboxamide], the PAMPA permeability is 353.1 1×10^−6 cm/s.
As for `Cc1ccccc1-c1nc(CN2CCC(C(=O)NCCCN3CCCC(CC(C)C)C3)CC2)c(C)o1` (racemic) [7l, (±)-N-(3-(3-Isobutylpiperidin-1-yl)propyl)-1-((5-methyl-2-(otolyl)oxazol-4-yl)methyl)piperidine-4-carboxamide], the PAMPA permeability is listed as 3 1×10^−6 cm/s.
For `Cc1ccccc1-c1nc(CN2CCC(C(=O)NCCCN3CCC(C)CC3)CC2)c(C)o1` [7g, N-(3-(4-Methylpiperidin-1-yl)propyl)-1-((5-methyl-2-(o-tolyl)-oxazol-4-yl)methyl)piperidine-4-carboxamide], the PAMPA permeability was 424.7 1×10^−6 cm/s.
As for `Cc1cc(C)cc(-c2nc(CN3CCC(C(=O)NCCCN4C[C@H](C)C[C@H](C)C4)CC3)c(C)o2)c1` [7z, N-(3-(cis-3,5-Dimethylpiperidin-1-yl)propyl)-1-((2-(3,5-dimethylphenyl)-5-methyloxazol-4-yl)methyl)piperidine-4-carboxamide], the PAMPA permeability is 864 1×10^−6 cm/s.
The result for `Cc1ccccc1-c1nc(CN2CCC(C(=O)NCCCN3CCOCC3)CC2)c(C)o1` [7q] reads 432.4 1×10^−6 cm/s; that for `Cc1ccc(-c2nc(CN3CCC(C(=O)NCCCN4C[C@H](C)C[C@H](C)C4)CC3)c(C)o2)cc1C` [7x, N-(3-(cis-3,5-Dimethylpiperidin-1-yl)propyl)-1-((2-(3,4-dimethylphenyl)-5-methyloxazol-4-yl)methyl)piperidine-4-carboxamide], 219.4 1×10^−6 cm/s; that for `Cc1oc(-c2c(Br)cccc2Br)nc1CN1CCC(C(=O)NCCCN2C[C@H](C)C[C@H](C)C2)CC1` [7ll, N-(3-(cis-3,5-Dimethylpiperidin-1-yl)propyl)-1-((2-(2,6-dibromophenyl)-5-methyloxazol-4-yl)methyl)piperidine-4-carboxamide], <1.0 1×10^−6 cm/s.
The value for `Cc1oc(-c2ccccc2Cl)nc1CN1CCC(C(=O)NCCCN2C[C@H](C)C[C@H](C)C2)CC1` [7dd, N-(3-(cis-3,5-Dimethylpiperidin-1-yl)propyl)-1-((2-(2-chlorophenyl)-5-methyloxazol-4-yl)methyl)piperidine-4-carboxamide] was 352.4 1×10^−6 cm/s; that for `Cc1ccccc1-c1nc(CN2CCC(C(=O)NCCCN3C[C@H](C)C[C@H](C)C3)CC2)c(C)o1` [7a, N-(3-(cis-3,5-Dimethylpiperidin-1-yl)propyl)-1-((5-methyl-2-(o-tolyl)oxazol-4-yl)-methyl)piperidine-4-carboxamide] was 489.1 1×10^−6 cm/s; that for `CCN(CC)CCCCNC(=O)C1CCN(Cc2nc(-c3ccc(OC)c(OC)c3)oc2C)CC1` [7zz, N-(4-(Diethylamino)butyl)-1-((2-(3,4-dimethoxyphenyl)-5-methyloxazol-4-yl)methyl)piperidine-4-carboxamide] was 10.4 1×10^−6 cm/s.
The value for `Cc1ccccc1-c1nc(CN2CCC(C(=O)N3CCN(C4CCN(C)CC4)CC3)CC2)c(C)o1` [7r, (1-((5-Methyl-2-(o-tolyl)oxazol-4-yl)methyl)piperidin-4-yl)(4-(1-methylpiperidin-4-yl)piperazin-1-yl)methanone] was <3.2 1×10^−6 cm/s; that for `Cc1cccc(Cl)c1-c1nc(CN2CCC(C(=O)NCCCN3CCCC(C)C3)CC2)c(C)o1` (racemic) [7oo, (±)-1-((2-(2-Chloro-6-methylphenyl)-5-methyloxazol-4-yl)-methyl)-N-(3-(3-methylpiperidin-1-yl)propyl)piperidine-4-carboxamide] was 650.6 1×10^−6 cm/s.
